# From PMC10447463, “Data-mining unveils structure–property–activity correlation of viral infectivity enhancing self-assembling peptides” (Nature Communications, 2023)
# Values joined by “and” are separate entries in the source; they are usually repeats but may differ in a detail not shown here. Equal entries are not always repeated. Where two headings read alike, the source gives them in different places.
# Key:
# [1] = Zeta-potential measurement; assay type: physicochemical; conditions: for Zeta-pot. / mV: zeta potential of peptide, Fig S15 source data
# Procedure, shortened: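 Peptides diluted from DMSO stock into PBS pH 7.4 to 1 mg/mL and aged 1 d at RT, then diluted into 1 mM aqueous KCl. Zeta potential derived from electrophoretic mobility via Smoluchowski; triplicates, averaged over two independent experiments.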
# [2] = β-sheet content by ATR-FT-IR; assay type: physicochemical
# Procedure, shortened: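 Spectra: 64 scans, 2 cm^-1, lyophilized PNF (1 mg/mL source). CR = 100 − 100 × filtrate/original fluorescamine signal; triplicate, ± SD.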
# [3] = assay type: physicochemical; conditions: STD prep
# [4] = ref sieste 2021 or Schilling2019, cited from earlier work
# Text: Supplement 41467_2023_40663_MOESM7_ESM.zip/FigS17.csv, table | column: Conversion Rate / % ( from sieste 2021 or Schilling2019)
# [5] = tested on: HIV-1 infection of TZM-bl cells; assay: HIV-1 infectivity enhancement assay, β-galactosidase luminescence; assay type: cell-based; conditions: for Log10 Inf. rel. to EF-C: log10 of HIV-1 infection of TZM-bl cells relative to EF-C, Fig S15 source data, asymmetric std dev errors; for Rel-to EFC / n-fold to virus: Fig S8 panels B, D; for Rel-to EFC: infectivity enhancement relative to EF-C
# [6] = Feb2021, 1.3 µM value relative to virus only (0 µM)
# [7] = Feb2021, log10 of infectivity relative to EF-C
# [8] = Feb2021, n-fold infectivity relative to EF-C
# [9] = Feb2021, unrounded values of the 1.3 µM column
# [10] = infectivity class (low / medium / high) of each library peptide, main list in c1-c6, same classes repeated in sub-lists of sequences containing the hydrophobicity/charge patterns P+,H0,P+,H0,P0,H0,P0, P+,H0,P0,H0,P0,H0,P0, P+,H0,P0,H0
# [11] = Feb2021, Log10 of infectivity relative to EF-C
# [12] = Feb2021, n-fold enhancement relative to EF-C
# [13] = Feb2021 run, infectivity n-fold relative to virus alone
# [14] = Feb2021 run, log10 of infectivity relative to EF-C
# [15] = Feb2021 run, n-fold infectivity relative to EF-C
# [16] = infectivity n-fold relative to virus alone
# [17] = infectivity class (low / medium / high) of the peptide in the sequence-pattern analysis, Fig. S22-A4, class limits not given
# [18] = previously reported peptides only
# [19] = Feb2021, figures match the 1.3 µM column
# [20] = Feb2021, infectivity relative to virus only
Substance,Zeta category ( +1 = if > 4 mV;-1 = if < -4 mV; 0 = -4mV to 4 mV) [1],"Zeta Pot. / mV ([1]; mean, Std Zeta in next column) [mV]","Zeta Pot. / mV ([1]; mean, Std in separate column) [mV]",Zeta-pot. / mV [1] [mV],FTIR ß-sheet content/ % [2] [%],FTIR ß-sheet content/ % ([2]; ATR-FT-IR),"TEM: 1= fibrils, 0= aggregates (micelle), 0.5 = aggregates and fibrils, -1 = nothing obersved, STD prep [3]",Conversion Rate / % ( from sieste 2021 or Schilling2019) [4] [%],"n-fold to virus (Feb2021) [5, 6]","Rel-to EFC (Feb-2021) [5, 8]","Absolute Infectivity / RLU /s (Feb2021) [5, 9] [RLU /s]","infectivity [5, 10]",Log10 Inf. rel. to EF-C [5],Zeta category ( +1 = if > 4 mV;-1 = if < -4 mV; 0 = -4mV to 4 mV) ([1]; category from zeta potential),"Log10 of Rel to EFC (Feb2021) [5, 11]","Rel-to EFC (Feb-2021) [5, 12]","n-fold to virus (Feb2021) [5, 13]","Log10 of Rel to EFC (Feb2021) [5, 14]","Rel-to EFC (Feb-2021) [5, 15]","infectivity [5, 17]",further results
CEIEIQINMWQ [TM143],-1 (-1 = if < -4 mV),-25.8,-25.8,-25.8,49.9,49.9%,0.5,74,9.188,0.2187,12066.66667,medium,-0.6602,–,–,–,–,–,–,–,"Log10 of Rel to EFC (Feb2021) [5, 7]: -0.6602; Rel-to EFC (Feb-2021) ([5]; infectivity enhancement relative to EF-C (=1), Feb2021 run): 0.2187; n-fold to virus (Feb2021) ([5]; infectivity n-fold relative to virus only, Feb2021 run): 9.188; Log10 of Rel to EFC (Feb2021) ([5]; log10 of infectivity relative to EF-C, Feb2021 run): -0.6602"
CKAKAQANM [BL9],-1 (-1 = if < -4 mV),-7.773,-7.773,-7.773,–,–,0.5,38,1.316,0.03133,430,low,-1.504,-1 (-1 = if < -4 mV),-1.504,0.03133,1.316,-1.504,0.03133,–,–
CKAKAQANMWQ [BL8],0 (0 = -4mV to 4 mV),0.7373,0.7373,0.7373,–,–,0.5,92,1.837,0.04371,600,low,-1.359,0 (0 = -4mV to 4 mV),-1.359,0.04371,1.837,-1.359,0.04371,–,"Rel-to EFC [5]: 0.04371; n-fold to virus [5, 16]: 1.837"
CKFKFQF [BL4],1 (+1 = if > 4 mV),19.73,19.73,19.73,47.43,47% and 47.43%,1,95,51.79,1.233,20066.66667,–,0.09083,1 (+1 = if > 4 mV),0.09083,1.233,51.79,0.09083,1.233,high,"Rel-to EFC [5]: 1.233; n-fold to virus [5, 16]: 51.79"
CKFKFQFNM [BL3],1 (+1 = if > 4 mV),15.13,15.13,15.13,41,41%,1,88,52.19,1.242,28183.33333,high,0.09417,1 (+1 = if > 4 mV),0.09417,1.242,52.19,0.09417,1.242,high,"Rel-to EFC [5]: 1.242; n-fold to virus [5, 16]: 52.19"
CSISIQINM [TM145],-1 (-1 = if < -4 mV),-19.4,–,-19.4,–,–,0.5,86,8.332,0.1983,10943.33333,medium,-0.7027,–,–,–,–,–,–,–,"Log10 of Rel to EFC (Feb2021) [5, 7]: -0.7027"
KFKFKFQF [TG18],1 (+1 = if > 4 mV),15.2,–,15.2,–,–,1,–,–,0.7993,–,–,-0.09726,1 (+1 = if > 4 mV),-0.09726,0.7993,–,–,–,high,"Zeta Pot. / mV [1]: 15.2 mV; Conversion Rate / % ( from sieste 2021 or Schilling2019) [4, 18]: 94%; Absolute Infectivity / RLU /s (Feb2021) [5, 19]: 18696.66667 RLU /s; n-fold to virus (Feb2021) [5, 20]: 33.59"
KIKIKIQI [TG13],1 (+1 = if > 4 mV),6.97,–,6.97,–,–,1,–,–,0.09675,–,low,-1.014,1 (+1 = if > 4 mV),-1.014,0.09675,–,–,–,low,"Zeta Pot. / mV [1]: 6.97 mV; Conversion Rate / % ( from sieste 2021 or Schilling2019) [4, 18]: 80%; Absolute Infectivity / RLU /s (Feb2021) [5, 19]: 2073 RLU /s; n-fold to virus (Feb2021) [5, 20]: 4.065"
